The record followed here is patent publication US20060251659A1, “Method for screening molecules that restore NOD1 activity in cells containing an NOD2 mutation that reduces or eliminates NOD1 activity” (priority 2005, published 2006).

For one test, the target named is T1, Nod2 (Homo sapiens, UniProt Q9HC29).
T1 construct: expressed in transfected cells; host or cells: HEK293T
Briefly: Nod2-dependent NF-κB luciferase reporter activation in transfected HEK293T cells. The following applies: for activation of Nod2 (NF-κB-driven luciferase reporter): muramyl peptides 10 nM up to 250 nM, HEK293T cells expressing Nod2, 24 h. The format is cell-based. The method, then: FIG. 1. Detection of MDP-derived muramyl peptides by Nod2. A, schematic representation of the muramyl peptides used in this study. B, Human HEK293 epithelial cells were transfected with several muramyl peptides (MDP, M-TriLys, Anh-M-TriLys, M-TetraLYS and Anh-M-TetraLYS) at the following concentrations: 10 nM (white bars), 50 nM (grey bars) or 250 nM (black bars) in the presence of an expression vector for Nod2 . The activity of a NF-κB-driven luciferase reporter gene was measured, and Nod2-dependent activation of the reporter gene in the presence of muramyl peptides was reported to the one obtained without stimulation with muramyl peptides. […] Experiments were performed three times with similar results.
In search for MDP-derived muramyl peptides that could stimulate the Nod2 signaling pathway, the inventors generated several molecules differing in the length of their peptidic moiety, including M-TriLys and M-TetraLys (FIG. 1A). These molecules were then tested for their ability to activate Nod2 using co-transfection assays in HEK293T epithelial cells and measuring NF-κB activity as a read-out (FIG. 1B). […] Here, a larger range of muramyl peptide concentration was used (10 nM up to 250 nM) to allow for the identification of even weak inducers of the Nod2 pathway.
HEK293T cells were cultured in DMEM containing 10% fetal calf serum. Prior to transfection, HEK293T cells were seeded into 24 well plates at a density of 1×10^5 cells/ml as described previously (26), MDP LD was from Calbiochem and reported to be 98% pure by TLC.
The expression plasmid for Nod2 has been previously described (27). The NF-κB luciferase reporter plasmid was from Stratagene. Transfections were carried out in […] cells as previously described (26).
Studies examining the synergistic activation of NF-κB by muramyl peptides in cells over expressing Nod2 were carried out as originally described by Inohara et al. (28). Briefly, HEK293T cells were transfected overnight with 10 ng of Nod2 plus 75 ng of NF-κB luciferase reporter plasmid. At the same time, muramyl peptides were added to cell culture medium and the synergistic NF-κB-dependent luciferase activation was then measured following 24 h of co-incubation. NF-κB-dependent luciferase assays were performed in duplicate and data represent at least 3 independent experiments.
(In general: A reporter such as luciferase makes a cellular process visible.)

The test system of test [1] is PBMCs from healthy donors. Nature of the test: Cytokine response of PBMCs from healthy donors (CTR). Format: cell-based, human. The following applies: 50 nM, overnight (18 hours). The method, then: (§1) FIG. 2. Response to muramyl peptides of PBMCs from healthy donors (CTR), Crohn's disease patients without defects in Nod2 (Crohn's) or Crohn's disease patients homozygous for the frameshift mutation (Nod2 fs). IL-1β, TNF and IL-10 were measured from the cell culture medium. Intracellular IL-1α was measured from cell lysates. All muramyl peptides (all 50 nM) were added directly to the cell culture medium for 18 hours.
(§2) FIG. 3. Response to peptidoglycans of PBMCs from healthy donors (CTR), Crohn's disease patients without defects in Nod2 (Crohn's) or Crohn's disease patients homozygous for the frameshift mutation (Nod2fs). IL-1β, TNF and IL-10 were measured from the cell culture medium. Intracellular IL-1α was measured from cell lysates. All peptidoglycans (all at 1 μg/ml) and LPS (100 ng/ml) were added directly to the cell culture medium for 18 hours.
(§3) FIG. 5. Analysis of the synergistic activation of PBMCs by M-TriDAP plus either LPS or LTA. PBMCs from healthy donors (CTR), Crohn's disease patients without defects in Nod2 (Crohn's) or Crohn's disease patients homozygous for the frameshift mutation (Nod2 fs) were analyzed. Cells were stimulated either with M-TriDAP (MTP(DAP) on the figure), LPS or LTA alone or in combination; LPS+M-TriDAP or LTA+M-TriDAP with the agonists added simultaneously, IL-1β, TNF and IL-10 were measured from the cell culture medium. Intracellular IL-1α was measured from cell lysates, LPS (40 pg/ml), LTA (5 μg/ml) and M-TriDAP (50 nM) were added directly to the cell culture medium for 18 hours.
(§4) The six muramyl peptides characterized above (MDP, M-TriLys, M-TetraLys, anhydro-M-TriLys, anhydro-M-TetraLys and M-TriDAP) were used to stimulate PBMCs obtained from human blood. PBMCs from three groups of individuals were collected: healthy donors (CTR), Crohn's disease patients without Nod2 mutations (Crohn) and Crohn's disease patients carrying homozygous Nod2fs frameshift mutation (Nod2fs). […] IL-1β, IL-10 and TNFα were measured in the supernatant, while intracellular IL-1α was measured from cell lysates (FIG. 2). […]

The subject of test [2] is PBMCs from Nod2fs patients. Nature of the test: Cytokine response of PBMCs from Crohn's disease patients homozygous for the Nod2fs frameshift mutation. Format: cell-based, human. To be noted: 50 nM, overnight (18 hours). The method, then:
as §1, §2, §3, §4

The subject of test [3] is PBMCs from Crohn's disease patients without Nod2 mutations. Nature of the test: Cytokine response of PBMCs from Crohn's disease patients without Nod2 mutations. Format: cell-based, human. The following applies: PBMCs from non-Nod2 Crohn's disease patients; 50 nM; overnight (18 hours). The method, then: as §1, §2, §3, §4

Entries after “also recorded” stand apart in the source; their conditions may differ.

T1 sequence (Q9HC29 whole entry): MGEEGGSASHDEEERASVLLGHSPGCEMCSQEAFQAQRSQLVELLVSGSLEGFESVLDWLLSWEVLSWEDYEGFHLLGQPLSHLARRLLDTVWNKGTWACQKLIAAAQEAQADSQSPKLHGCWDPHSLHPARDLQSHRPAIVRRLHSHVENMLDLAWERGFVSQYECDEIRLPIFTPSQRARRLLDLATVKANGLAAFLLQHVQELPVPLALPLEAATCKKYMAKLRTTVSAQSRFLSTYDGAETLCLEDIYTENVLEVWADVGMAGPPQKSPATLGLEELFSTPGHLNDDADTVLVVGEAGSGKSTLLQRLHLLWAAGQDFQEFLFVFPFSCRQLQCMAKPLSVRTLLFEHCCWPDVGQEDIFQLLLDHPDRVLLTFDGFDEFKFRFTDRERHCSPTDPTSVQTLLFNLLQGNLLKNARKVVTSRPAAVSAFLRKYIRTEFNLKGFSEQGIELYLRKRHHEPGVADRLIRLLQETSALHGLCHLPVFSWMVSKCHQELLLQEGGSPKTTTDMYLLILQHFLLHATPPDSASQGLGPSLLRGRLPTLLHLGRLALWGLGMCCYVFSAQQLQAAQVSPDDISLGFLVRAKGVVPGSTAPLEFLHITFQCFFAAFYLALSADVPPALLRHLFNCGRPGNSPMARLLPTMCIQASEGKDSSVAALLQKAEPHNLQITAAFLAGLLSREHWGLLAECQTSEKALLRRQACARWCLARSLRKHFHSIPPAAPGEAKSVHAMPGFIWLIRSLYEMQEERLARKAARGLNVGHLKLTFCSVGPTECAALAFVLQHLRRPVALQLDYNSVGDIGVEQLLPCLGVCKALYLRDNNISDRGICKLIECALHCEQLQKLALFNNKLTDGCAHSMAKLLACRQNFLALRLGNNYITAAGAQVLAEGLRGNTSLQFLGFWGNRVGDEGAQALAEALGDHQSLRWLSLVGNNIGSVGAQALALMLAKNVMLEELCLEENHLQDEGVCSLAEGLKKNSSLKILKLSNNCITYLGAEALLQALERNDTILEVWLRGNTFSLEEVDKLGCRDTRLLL

M-TriLys: the “activation of Nod2 (NF-κB-driven luciferase reporter)” value at Nod2 is recorded as “activated Nod2 with similar efficiency”. Further, the figures for the “cytokine response (IL-1β, IL-10, TNFα, intracellular IL-1α) to muramyl peptides” value (from here on “cytokine response”) in test [1], in test [2] and in test [3] were “potent activators”, “not stimulated” and “still reacted”, respectively.

In the case of `CC(=O)N[C@H]1C(O)O[C@H](CO)[C@@H](O)[C@@H]1O[C@H](C)C(=O)N[C@@H](C)C(=O)N[C@H](CCC(=O)O)C(N)=O` (mixture of isomers) [MDP, muramyl dipeptide], the “concentration at which activation of Nod2 was maximal” value at Nod2 (HEK293T co-transfection, NF-κB read-out, 10 pmoles per milliliter of culture medium) turned out to be 10 nM. Further, at Nod2, the “activation of Nod2 (NF-κB-driven luciferase reporter)” value is “activated Nod2 with similar efficiency”. Further, the “cytokine response” value is listed as “potent activators” in test [1], “not stimulated” in test [2] and “still reacted” in test [3].

Turning to “diaminopimelic acid (DAP)-containing muramyl tripeptide [M-TriDAP]”, the “activation of Nod2 (NF-κB-driven luciferase reporter)” value at Nod2 was “failed to activate Nod2”. Moreover, the “cytokine response” value in test [1] is “efficiently stimulated; also recorded: globally as potent as MDP”; in test [2] it was “failed to induce cytokine response; also recorded: unable to stimulate”; in test [3] it was “efficiently stimulated; also recorded: globally as potent as MDP”.
